≈ marks a conversion by molar mass, not a printed value.
Tests used:
[1] = test system: Enterococcus sp.; assay: In vitro antibacterial evaluation: minimum inhibitory concentration (MIC), broth dilution method; assay type: cell-based; conditions: 18 hours at 35° C.
Procedure, shortened: (§1)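 Susceptibility determined by NCCLS-recommended broth dilution (M7-A2), Muller-Hinton II […]. Concentration span 64-0.06 μg/mL, inoculum 5×10^5 CFU/mL. Isolates include strains resistant to methicillin, penicillin and/or vancomycin.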

[2] = test system: Escherichia coli; assay: as above; assay type: cell-based; conditions: 18 hours at 35° C.
Procedure, shortened: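 NCCLS M7-A2 broth dilution; Muller-Hinton II […]; 5×10^5 CFU/mL; 64-0.06 μg/mL. MIC = lowest concentration with no growth.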

[3] = test system: Staphylococcus sp.; assay: as above; assay type: cell-based; conditions: 18 hours at 35° C.
Procedure, shortened: as §1

[4] = test system: Streptococcus sp.; assay: as above; assay type: cell-based; conditions: 18 hours at 35° C.
Procedure, shortened: as §1

[5] = test system: Staphylococcus aureus-SMITH (GC 4543); assay: Acute lethal infection in mice (ED50); assay type: in vivo; conditions: female CD-1 mice, intraperitoneal challenge, intravenous dose 30 min. after infection, 7 day survival ratios
Procedure, shortened: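 Lethal systemic infection model: female CD-1 mice, 20 ± 1-2 g, intraperitoneal challenge. Single intravenous treatment 30 min after infection; 7-day survival, pooled from 3 tests, gives ED50.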

[6] = Anatomic pathology (heart and kidney histopathology) in mice; assay type: in vivo, CD-1 mice; conditions: 20 mg/kg intravenously daily for 9 days, microscopic histopathology on day 10
Procedure, shortened: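 Juvenile CD-1 mice (20 days old; 5 vehicle, 5 treated) received glycopeptide antibiotic 20 mg/kg i.v. daily for 9 days. Necropsied tissues formalin-fixed, paraffin-embedded, H&E stained and examined microscopically; findings graded slight to severe versus controls.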

[7] = broth dilution, inoculum 5×10^5 CFU/mL

COc1ccc2cc(COCC3OC(OC4C(CO)OC(Oc5ccc(CC6NC(=O)C(C(C)c7ccccc7)NC(=O)CNC(=O)C(CO)NC(=O)C(C(O)C7CNC(=N)N7C7OC(CO)C(O)C(O)C7O)NC(=O)C(C(O)C7CNC(=N)N7)NC6=O)cc5)C(O)C4O)C(O)C(O)C3O)ccc2c1 (stereo not drawn) [Example 230, Cyclo[glycyl-β-methylphenylalanyl-O-[4-O-[6-O-[(6-methoxy-2-naphthyl)methyl]hexopyranosyl]hexopyranosyl]tyrosyl-3-(2-iminoimidazolidin-4-yl)seryl-3-(3-hexopyranosyl-2-iminoimidazolidin-4-yl)serylseryl]]
MIC Enterococcus avium (GC 4558) ([1]; Enterococcus avium (GC 4558)): 8 µg/mL (≈ 5.46 µM)
MIC Enterococcus faecalis (ATCC 29212) ([1]; Enterococcus faecalis (ATCC 29212)): 8 µg/mL (≈ 5.46 µM)
MIC Enterococcus faecalis (GC 2242) ([1]; Enterococcus faecalis (GC 2242)): 8 µg/mL (≈ 5.46 µM)
MIC Enterococcus faecalis (GC 2691) ([1]; Enterococcus faecalis (GC 2691)): 4 µg/mL (≈ 2.73 µM)
MIC Enterococcus faecalis (GC 3059) ([1]; Enterococcus faecalis (GC 3059)): 8 µg/mL (≈ 5.46 µM)
MIC Enterococcus faecalis (GC 4552) ([1]; Enterococcus faecalis (GC 4552)): 8 µg/mL (≈ 5.46 µM)
MIC Enterococcus faecalis (GC 4553) ([1]; Enterococcus faecalis (GC 4553)): 8 µg/mL (≈ 5.46 µM)
MIC Enterococcus faecalis (GC 4554) ([1]; Enterococcus faecalis (GC 4554)): 8 µg/mL (≈ 5.46 µM)
MIC Enterococcus faecalis (GC 6189) ([1]; Enterococcus faecalis (GC 6189)): 4 µg/mL (≈ 2.73 µM)
MIC Enterococcus faecium (GC 2243) ([1]; Enterococcus faecium (GC 2243)): 8 µg/mL (≈ 5.46 µM)
MIC Enterococcus faecium (GC 4556) ([1]; Enterococcus faecium (GC 4556)): 8 µg/mL (≈ 5.46 µM)
MIC Enterococcus faecium (GC 4557) ([1]; Enterococcus faecium (GC 4557)): 2 µg/mL (≈ 1.36 µM)
MIC Enterococcus avium (GC 4558) [1, 7]: 8 µg/mL (≈ 5.46 µM)
MIC Enterococcus faecalis (ATCC 29212) [1, 7]: 8 µg/mL (≈ 5.46 µM)
MIC Enterococcus faecalis (GC 2242) [1, 7]: 8 µg/mL (≈ 5.46 µM)
MIC Enterococcus faecalis (GC 2691) [1, 7]: 4 µg/mL (≈ 2.73 µM)
MIC Enterococcus faecalis (GC 3059) [1, 7]: 8 µg/mL (≈ 5.46 µM)
MIC Enterococcus faecalis (GC 4552) [1, 7]: 8 µg/mL (≈ 5.46 µM)
MIC Enterococcus faecalis (GC 4553) [1, 7]: 8 µg/mL (≈ 5.46 µM)
MIC Enterococcus faecalis (GC 4554) [1, 7]: 8 µg/mL (≈ 5.46 µM)
MIC Enterococcus faecalis (GC 6189) [1, 7]: 4 µg/mL (≈ 2.73 µM)
MIC Enterococcus faecium (GC 2243) [1, 7]: 8 µg/mL (≈ 5.46 µM)
MIC Enterococcus faecium (GC 4556) [1, 7]: 8 µg/mL (≈ 5.46 µM)
MIC Enterococcus faecium (GC 4557) [1, 7]: 2 µg/mL (≈ 1.36 µM)
MIC Escherichia coli (ATCC 25922) ([2]; Escherichia coli (ATCC 25922)): 64 µg/mL (≈ 43.7 µM)
MIC Escherichia coli (GC 4559) ([2]; Escherichia coli (GC 4559)): >64 µg/mL
MIC Escherichia coli (GC 4560) ([2]; Escherichia coli (GC 4560)): 1 µg/mL (≈ 0.682 µM)
MIC Coagulase Negative Staphylococcus (GC 4547) ([3]; Coagulase Negative Staphylococcus (GC 4547)): 1 µg/mL (≈ 0.682 µM)
MIC Coagulase Negative Staphylococcus (GC 4548) ([3]; Coagulase Negative Staphylococcus (GC 4548)): 0.5 µg/mL (≈ 0.341 µM)
MIC Coagulase Negative Staphylococcus (GC 4549) ([3]; Coagulase Negative Staphylococcus (GC 4549)): 1 µg/mL (≈ 0.682 µM)
MIC Coagulase Negative Staphylococcus (GC 4551) ([3]; Coagulase Negative Staphylococcus (GC 4551)): 2 µg/mL (≈ 1.36 µM)
MIC Coagulase Negative Staphylococcus (GC 6257) ([3]; Coagulase Negative Staphylococcus (GC 6257)): 0.5 µg/mL (≈ 0.341 µM)
MIC Staphylococcus aureus (ATCC 29213) ([3]; Staphylococcus aureus (ATCC 29213)): 2 µg/mL (≈ 1.36 µM)
MIC Staphylococcus aureus (GC 1131) ([3]; Staphylococcus aureus (GC 1131)): 2 µg/mL (≈ 1.36 µM)
MIC Staphylococcus aureus (GC 3051) ([3]; Staphylococcus aureus (GC 3051)): 2 µg/mL (≈ 1.36 µM)
MIC Staphylococcus aureus (GC 3053) ([3]; Staphylococcus aureus (GC 3053)): 2 µg/mL (≈ 1.36 µM)
MIC Staphylococcus aureus (GC 4541) ([3]; Staphylococcus aureus (GC 4541)): 1 µg/mL (≈ 0.682 µM)
MIC Staphylococcus aureus (GC 4542) ([3]; Staphylococcus aureus (GC 4542)): 2 µg/mL (≈ 1.36 µM)
MIC Staphylococcus aureus (GC 4544) ([3]; Staphylococcus aureus (GC 4544)): 2 µg/mL (≈ 1.36 µM)
MIC Staphylococcus aureus (GC 4545) ([3]; Staphylococcus aureus (GC 4545)): 1 µg/mL (≈ 0.682 µM)
MIC Staphylococcus aureus-SMITH (GC 4543) ([3]; Staphylococcus aureus-SMITH (GC 4543)): 1 µg/mL (≈ 0.682 µM)
MIC Staphylococcus haemolyticus (GC 4546) ([3]; Staphylococcus haemolyticus (GC 4546)): 1 µg/mL (≈ 0.682 µM)
MIC Streptococcus agalactiae (GC 4564) ([4]; Streptococcus agalactiae (GC 4564)): 0.5 µg/mL (≈ 0.341 µM)
MIC Streptococcus pneumoniae (ATCC 6301) ([4]; Streptococcus pneumoniae (ATCC 6301)): 0.12 µg/mL (≈ 0.0819 µM)
MIC Streptococcus pneumoniae (GC 1894) ([4]; Streptococcus pneumoniae (GC 1894)): <0.06 µg/mL
MIC Streptococcus pneumoniae (GC 4565) ([4]; Streptococcus pneumoniae (GC 4565)): 0.12 µg/mL (≈ 0.0819 µM)
MIC Streptococcus pyogenes (GC 4563) ([4]; Streptococcus pyogenes (GC 4563)): 0.25 µg/mL (≈ 0.171 µM)
MIC Streptococcus agalactiae (GC 4564) [4, 7]: 0.5 µg/mL (≈ 0.341 µM)
MIC Streptococcus pneumoniae (ATCC 6301) [4, 7]: 0.12 µg/mL (≈ 0.0819 µM)
MIC Streptococcus pneumoniae (GC 1894) [4, 7]: <0.06 µg/mL
MIC Streptococcus pneumoniae (GC 4565) [4, 7]: 0.12 µg/mL (≈ 0.0819 µM)
MIC Streptococcus pyogenes (GC 4563) [4, 7]: 0.25 µg/mL (≈ 0.171 µM)
median effective dose (ED50), Staphylococcus aureus-SMITH (GC 4543) [5]: 0.12 mg/kg
Anatomical Pathology (Day 10), Heart [6]: 0
Anatomical Pathology (Day 10), Kidney [6]: +++
